# According to the supplement of paper PMC5908809:
# Experiments:
# [1] = tested on: normal NK cells expanded with K562-aAPC; experiment: percent inhibition of viability; higher = more inhibition; conditions: 72 h, IL-2 2.5 ng/mL
# Method: (§1)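 Drug sensitivity and resistance testing on K562-aAPC-expanded normal NK cells: 5 concentrations (10-fold steps over a 10,000-fold range), 72 h at 37 °C, viability by CellTiter-Glo normalised to DMSO and benzethonium chloride controls; DSS from the fitted curve.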
# [2] = tested on: DERL-7 (IL-2 2.5 ng/mL); experiment: as above; conditions: 72 h
# [3] = tested on: IMC-1 (IL-2 20 ng/mL); experiment: as above; conditions: 72 h
# [4] = tested on: KAI3 (IL-2 2.5 ng/mL); experiment: as above; conditions: 72 h
# [5] = tested on: KHYG-1 (IL-2 2.5 ng/mL); experiment: as above; conditions: 72 h
# [6] = tested on: NK-92 (IL-2 2.5 ng/mL); experiment: as above; conditions: 72 h
# [7] = tested on: NK-YS (IL-2 2.5 ng/mL); experiment: as above; conditions: 72 h
# [8] = tested on: NKL (IL-2 2.5 ng/mL); experiment: as above; conditions: 72 h
# [9] = tested on: SNK-6 (IL-2 2.5 ng/mL); experiment: as above; conditions: 72 h
# [10] = tested on: YT (IL-2 2.5 ng/mL); experiment: as above; conditions: 72 h
# [11] = tested on: normal primary NK cells, pool 1 (3 donors) (IL-2 2.5 ng/mL); experiment: as above; conditions: 72 h
# [12] = tested on: normal primary NK cells, pool 1 (3 donors), resting (IL-2 0 ng/mL); experiment: as above; conditions: 72 h
# [13] = tested on: normal primary NK cells, pool 2 (3 donors) (IL-2 2.5 ng/mL); experiment: as above; conditions: 72 h
# [14] = tested on: normal primary NK cells, pool 3 (3 donors) (IL-2 2.5 ng/mL); experiment: as above; conditions: 72 h
# [15] = tested on: normal NK cells expanded with K562-aAPC; experiment: drug sensitivity score (DSS) (DSS units); higher = more sensitive; extreme values may be limits of the assay; conditions: 72 h; IL-2 2.5 ng/mL
# Method: as §1
# [16] = tested on: DERL-7 (IL-2 2.5 ng/mL); experiment: as above; conditions: 72 h
# [17] = tested on: IMC-1 (IL-2 20 ng/mL); experiment: as above; conditions: 72 h
# [18] = tested on: KAI3 (IL-2 2.5 ng/mL); experiment: as above; conditions: 72 h
# [19] = tested on: KHYG-1 (IL-2 2.5 ng/mL); experiment: as above; conditions: 72 h
# [20] = tested on: NK-92 (IL-2 2.5 ng/mL); experiment: as above; conditions: 72 h
# [21] = tested on: NK-YS (IL-2 2.5 ng/mL); experiment: as above; conditions: 72 h
# [22] = tested on: NKL (IL-2 2.5 ng/mL); experiment: as above; conditions: 72 h
# [23] = tested on: SNK-6 (IL-2 2.5 ng/mL); experiment: as above; conditions: 72 h
# [24] = tested on: YT (IL-2 2.5 ng/mL); experiment: as above; conditions: 72 h
# [25] = tested on: normal primary NK cells, pool 1 (3 donors) (IL-2 2.5 ng/mL); experiment: as above; conditions: 72 h
# [26] = tested on: normal primary NK cells, pool 1 (3 donors), resting (IL-2 0 ng/mL); experiment: as above; conditions: 72 h
# [27] = tested on: normal primary NK cells, pool 2 (3 donors) (IL-2 2.5 ng/mL); experiment: as above; conditions: 72 h
# [28] = tested on: normal primary NK cells, pool 3 (3 donors) (IL-2 2.5 ng/mL); experiment: as above; conditions: 72 h
smiles,measurement,setting,value
CNNCc1ccc(C(=O)NC(C)C)cc1 [Procarbazine] (max concentration tested 10000 nM),percent inhibition of viability,[1]; 1 nM,-2.09%
same,percent inhibition of viability,[1]; 10 nM,-5.44%
same,percent inhibition of viability,[1]; 100 nM,-0.68%
same,percent inhibition of viability,[1]; 1000 nM,-4.82%
same,percent inhibition of viability,[1]; 10000 nM,-4.8%
same,percent inhibition of viability,[2]; 1 nM,-5.96%
same,percent inhibition of viability,[2]; 10 nM,-2.97%
same,percent inhibition of viability,[2]; 100 nM,-1.35%
same,percent inhibition of viability,[2]; 1000 nM,-4.02%
same,percent inhibition of viability,[2]; 10000 nM,-1.33%
same,percent inhibition of viability,[3]; 1 nM,-5.39%
same,percent inhibition of viability,[3]; 10 nM,-4.18%
same,percent inhibition of viability,[3]; 100 nM,-3.85%
same,percent inhibition of viability,[3]; 1000 nM,-5.41%
same,percent inhibition of viability,[3]; 10000 nM,-5.74%
same,percent inhibition of viability,[4]; 1 nM,-11.1%
same,percent inhibition of viability,[4]; 10 nM,-15.3%
same,percent inhibition of viability,[4]; 100 nM,-9.69%
same,percent inhibition of viability,[4]; 1000 nM,-2.54%
same,percent inhibition of viability,[4]; 10000 nM,-7.53%
same,percent inhibition of viability,[5]; 1 nM,-6.92%
same,percent inhibition of viability,[5]; 10 nM,-2.1%
same,percent inhibition of viability,[5]; 100 nM,-5.13%
same,percent inhibition of viability,[5]; 1000 nM,-6.74%
same,percent inhibition of viability,[5]; 10000 nM,-9.22%
same,percent inhibition of viability,[6]; 1 nM,-19%
same,percent inhibition of viability,[6]; 10 nM,-5.13%
same,percent inhibition of viability,[6]; 100 nM,-2.68%
same,percent inhibition of viability,[6]; 1000 nM,-0.23%
same,percent inhibition of viability,[6]; 10000 nM,-12.9%
same,percent inhibition of viability,[7]; 1 nM,-8.8%
same,percent inhibition of viability,[7]; 10 nM,-5.02%
same,percent inhibition of viability,[7]; 100 nM,-3.78%
same,percent inhibition of viability,[7]; 1000 nM,-7.11%
same,percent inhibition of viability,[7]; 10000 nM,-5.77%
same,percent inhibition of viability,[8]; 1 nM,-15.8%
same,percent inhibition of viability,[8]; 10 nM,-21.9%
same,percent inhibition of viability,[8]; 100 nM,-20.6%
same,percent inhibition of viability,[8]; 1000 nM,-22.9%
same,percent inhibition of viability,[8]; 10000 nM,-16.7%
same,percent inhibition of viability,[9]; 1 nM,-3.98%
same,percent inhibition of viability,[9]; 10 nM,12.4%
same,percent inhibition of viability,[9]; 100 nM,2.31%
same,percent inhibition of viability,[9]; 1000 nM,3.29%
same,percent inhibition of viability,[9]; 10000 nM,-21.5%
same,percent inhibition of viability,[10]; 1 nM,-8.77%
same,percent inhibition of viability,[10]; 10 nM,-3.75%
same,percent inhibition of viability,[10]; 100 nM,-6.96%
same,percent inhibition of viability,[10]; 1000 nM,-5.83%
same,percent inhibition of viability,[10]; 10000 nM,-8.88%
same,percent inhibition of viability,[11]; 1 nM,-3.19%
same,percent inhibition of viability,[11]; 10 nM,-6.37%
same,percent inhibition of viability,[11]; 100 nM,-6.53%
same,percent inhibition of viability,[11]; 1000 nM,-1.7%
same,percent inhibition of viability,[11]; 10000 nM,-5.09%
same,percent inhibition of viability,[12]; 1 nM,-10.9%
same,percent inhibition of viability,[12]; 10 nM,-14.4%
same,percent inhibition of viability,[12]; 100 nM,-17.2%
same,percent inhibition of viability,[12]; 1000 nM,1.81%
same,percent inhibition of viability,[12]; 10000 nM,-7.55%
same,percent inhibition of viability,[13]; 1 nM,-13.7%
same,percent inhibition of viability,[13]; 10 nM,-3.7%
same,percent inhibition of viability,[13]; 100 nM,-4.8%
same,percent inhibition of viability,[13]; 1000 nM,-10%
same,percent inhibition of viability,[13]; 10000 nM,-2.4%
same,percent inhibition of viability,[14]; 1 nM,-11.8%
same,percent inhibition of viability,[14]; 10 nM,-5.14%
same,percent inhibition of viability,[14]; 100 nM,-5.98%
same,percent inhibition of viability,[14]; 1000 nM,-4.43%
same,percent inhibition of viability,[14]; 10000 nM,-4%
same,drug sensitivity score,[15],0
same,drug sensitivity score,[16],0
same,drug sensitivity score,[17],0
same,drug sensitivity score,[18],0
same,drug sensitivity score,[19],0
same,drug sensitivity score,[20],0
same,drug sensitivity score,[21],0
same,drug sensitivity score,[22],0
same,drug sensitivity score,[23],0
same,drug sensitivity score,[24],0
same,drug sensitivity score,[25],0
same,drug sensitivity score,[26],0
same,drug sensitivity score,[27],0
same,drug sensitivity score,[28],0
Cn1cc(CNCC2CCN(c3ncc(C(=O)NO)cn3)CC2)c2ccccc21 [Quisinostat] (max concentration tested 1000 nM),percent inhibition of viability,[1]; 0.1 nM,-4.41%
same,percent inhibition of viability,[1]; 1 nM,2.67%
same,percent inhibition of viability,[1]; 10 nM,27.3%
same,percent inhibition of viability,[1]; 100 nM,98.9%
same,percent inhibition of viability,[1]; 1000 nM,99.5%
same,percent inhibition of viability,[2]; 0.1 nM,4.2%
same,percent inhibition of viability,[2]; 1 nM,1.75%
same,percent inhibition of viability,[2]; 10 nM,46.9%
same,percent inhibition of viability,[2]; 100 nM,99.6%
same,percent inhibition of viability,[2]; 1000 nM,99.1%
same,percent inhibition of viability,[3]; 0.1 nM,-4.98%
same,percent inhibition of viability,[3]; 1 nM,-0.52%
same,percent inhibition of viability,[3]; 10 nM,-8.31%
same,percent inhibition of viability,[3]; 100 nM,99.6%
same,percent inhibition of viability,[3]; 1000 nM,99.7%
same,percent inhibition of viability,[4]; 0.1 nM,-2.72%
same,percent inhibition of viability,[4]; 1 nM,8.43%
same,percent inhibition of viability,[4]; 10 nM,36.8%
same,percent inhibition of viability,[4]; 100 nM,88.8%
same,percent inhibition of viability,[4]; 1000 nM,97.3%
same,percent inhibition of viability,[5]; 0.1 nM,-1.89%
same,percent inhibition of viability,[5]; 1 nM,-1.8%
same,percent inhibition of viability,[5]; 10 nM,12.5%
same,percent inhibition of viability,[5]; 100 nM,99.3%
same,percent inhibition of viability,[5]; 1000 nM,97.8%
same,percent inhibition of viability,[6]; 0.1 nM,-10.6%
same,percent inhibition of viability,[6]; 1 nM,-6.5%
same,percent inhibition of viability,[6]; 10 nM,15.2%
same,percent inhibition of viability,[6]; 100 nM,70.9%
same,percent inhibition of viability,[6]; 1000 nM,93.4%
same,percent inhibition of viability,[7]; 0.1 nM,-1.23%
same,percent inhibition of viability,[7]; 1 nM,0.57%
same,percent inhibition of viability,[7]; 10 nM,20.6%
same,percent inhibition of viability,[7]; 100 nM,92.9%
same,percent inhibition of viability,[7]; 1000 nM,97.7%
same,percent inhibition of viability,[8]; 0.1 nM,-9.03%
same,percent inhibition of viability,[8]; 1 nM,-1.25%
same,percent inhibition of viability,[8]; 10 nM,43.9%
same,percent inhibition of viability,[8]; 100 nM,99.4%
same,percent inhibition of viability,[8]; 1000 nM,96.7%
same,percent inhibition of viability,[9]; 0.1 nM,1.8%
same,percent inhibition of viability,[9]; 1 nM,20.8%
same,percent inhibition of viability,[9]; 10 nM,-18.7%
same,percent inhibition of viability,[9]; 100 nM,56.4%
same,percent inhibition of viability,[9]; 1000 nM,99.2%
same,percent inhibition of viability,[10]; 0.1 nM,0.16%
same,percent inhibition of viability,[10]; 1 nM,-4.15%
same,percent inhibition of viability,[10]; 10 nM,0.59%
same,percent inhibition of viability,[10]; 100 nM,77.7%
same,percent inhibition of viability,[10]; 1000 nM,97.8%
same,percent inhibition of viability,[11]; 0.1 nM,-12.9%
same,percent inhibition of viability,[11]; 1 nM,4.2%
same,percent inhibition of viability,[11]; 10 nM,58.6%
same,percent inhibition of viability,[11]; 100 nM,97.3%
same,percent inhibition of viability,[11]; 1000 nM,96.1%
same,percent inhibition of viability,[12]; 0.1 nM,-8.56%
same,percent inhibition of viability,[12]; 1 nM,21.3%
same,percent inhibition of viability,[12]; 10 nM,79%
same,percent inhibition of viability,[12]; 100 nM,90.3%
same,percent inhibition of viability,[12]; 1000 nM,90%
same,percent inhibition of viability,[13]; 0.1 nM,-0.78%
same,percent inhibition of viability,[13]; 1 nM,3.43%
same,percent inhibition of viability,[13]; 10 nM,67.6%
same,percent inhibition of viability,[13]; 100 nM,93.8%
same,percent inhibition of viability,[13]; 1000 nM,93.9%
same,percent inhibition of viability,[14]; 0.1 nM,-2.24%
same,percent inhibition of viability,[14]; 1 nM,-1.5%
same,percent inhibition of viability,[14]; 10 nM,32.9%
same,percent inhibition of viability,[14]; 100 nM,96.6%
same,percent inhibition of viability,[14]; 1000 nM,97.4%
same,drug sensitivity score,[15],21.9
same,drug sensitivity score,[16],23.7
same,drug sensitivity score,[17],17.2
same,drug sensitivity score,[18],20.6
same,drug sensitivity score,[19],19.9
same,drug sensitivity score,[20],15.1
same,drug sensitivity score,[21],19.7
same,drug sensitivity score,[22],23.6
same,drug sensitivity score,[23],12.2
same,drug sensitivity score,[24],14.3
same,drug sensitivity score,[25],24.6
same,drug sensitivity score,[26],28.6
same,drug sensitivity score,[27],25.2
same,drug sensitivity score,[28],22.2
